Test results taken from patent US20080214518A1, “Pharmaceutical Composition Comprising an Anti-Bacterial Agent and an Active Ingredient Selected From Carveol, Thymol, Eugenol, Borneol and Carvacrol” (priority 2005, published 2008).
Where two headings read alike, the source gives them in different places.

What was measured:
[1] = system: resistant mycobacterial strains isolated in a veterinary environment; assay: Static MIC/MBC tests, potentiation over tested mycobacterial strains; type: cell-based; conditions: antibiotic combined with carvacrol or thymol at 0.3 mg/ml
Mycobacterium fortuitum = assay: Static tests to determine MIC and MBC; type: cell-based; conditions: Mycolicibacterium fortuitum; antibiotic alone; exponential growth phase
Mycobacterium fleii = assay: Static tests to determine MIC and MBC; type: cell-based; conditions: antibiotic alone, exponential growth phase
[2] = system: Staphylococcus epidermidis; assay: Static tests to determine MIC and MBC; type: cell-based; conditions: exponential growth phase; for MBC: first substance alone; for MIC: antibiotic alone
Protocol: (§1) The experiment was carried out with several Gram-negative and Gram-positive bacterial strains with different susceptibilities isolated in the hospital environment.
Antibacterial pharmaceutical compositions according to the invention were prepared by mixing amoxicillin at different concentrations with carveol at a sub-inhibitory concentration of 0.3 g per liter of solution or excipient (equivalent to 0.3 mg/ml). The minimal concentration of amoxicillin in combination with carveol 0.3 mg/ml that produced a bactericidal effect was determined. In each case, antibiotic activity was determined either with amoxicillin alone, or with carveol alone, or with the composition of the invention. […]

Bacillus subtilis = assay: Static tests to determine MIC and MBC; type: cell-based; conditions: exponential growth phase; for MBC: first substance alone; for MIC: antibiotic alone
Protocol: as §1
(§2) Antibacterial pharmaceutical compositions according to the invention were prepared by mixing amoxicillin at different concentrations with carveol at a sub-inhibitory concentration of 0.3 g per liter of solution or excipient (equivalent to 0.3 mg/ml). The minimal concentration of amoxicillin in combination with carveol 0.3 mg/ml that produced a bactericidal effect was determined. In each case, antibiotic activity was determined either with amoxicillin alone, or with carveol alone, or with the composition of the invention.
(§3) The experiment was carried out with several resistant bacterial strains isolated in the hospital environment. The antibiotic used was ampicillin, from the beta-lactam family, which is one of the most widely used antibiotics. An antibiotic pharmaceutical composition according to the invention was prepared by mixing ampicillin at different concentrations with carveol at a sub-inhibitory concentration of 0.3 g per liter of solution or excipient. This pharmaceutical composition of the invention was named Ampi-P, for potentiated ampicillin. In each case, antibiotic activity was determined either with ampicillin alone, or with carveol alone, or with the composition of the invention.
(§4) The experiment was carried out with several resistant bacterial strains isolated in the hospital environment. The antibiotic used was cephazolin, from the cephalosporin family, another class of beta-lactams which are among the most widely used antibiotics. An antibiotic pharmaceutical composition according to the invention was prepared by mixing cephazolin at different concentrations with alpha-ionone and beta-ionone at a sub-inhibitory concentration of 0.3 g per liter of solution or excipient. This pharmaceutical composition of the invention was named Cepha-P, for potentiated cephazolin. In each case, antibiotic activity was determined either with cephazolin alone, or with alpha-ionone or beta-ionone alone, or with the composition of the invention.
as §3, with “polymyxin B,” for “ampicillin,”, “peptide” for “beta-lactam”, “oldest” for “most widely used”, “polymyxin B” for “ampicillin”, “Polymix-P,” for “Ampi-P,”, “polymyxin B.” for “ampicillin.”
as §3, with “chloramphenicol,” for “ampicillin,”, “phenicol” for “beta-lactam”, “oldest” for “most widely used”, “chloramphenicol” for “ampicillin”, “Chloram-P,” for “Ampi-P,”, “chloramphenicol.” for “ampicillin.”
(§5) The experiment was carried out with several resistant bacterial strains isolated in the hospital environment. The antibiotic used was chlortetracycline, one of the oldest antibiotics. An antibiotic pharmaceutical composition according to the invention was prepared by mixing chlortetracycline at different concentrations with carveol at a sub-inhibitory concentration of 0.3 g per liter of solution or excipient.

Salmonella typhimurium = assay: Static tests to determine MIC and MBC; type: cell-based; conditions: exponential growth phase; for MBC: first substance alone; for MIC: antibiotic alone
Protocol: as §1, §2, §3, §4
as §3, with “polymyxin B,” for “ampicillin,”, “peptide” for “beta-lactam”, “oldest” for “most widely used”, “polymyxin B” for “ampicillin”, “Polymix-P,” for “Ampi-P,”, “polymyxin B.” for “ampicillin.”
as §3, with “chloramphenicol,” for “ampicillin,”, “phenicol” for “beta-lactam”, “oldest” for “most widely used”, “chloramphenicol” for “ampicillin”, “Chloram-P,” for “Ampi-P,”, “chloramphenicol.” for “ampicillin.”
as §5

Escherichia coli = assay: Static tests to determine MIC and MBC; type: cell-based; conditions: exponential growth phase; for MBC: first substance alone; for MIC: antibiotic alone
Protocol: as §1, §2, §3, §4
as §3, with “polymyxin B,” for “ampicillin,”, “peptide” for “beta-lactam”, “oldest” for “most widely used”, “polymyxin B” for “ampicillin”, “Polymix-P,” for “Ampi-P,”, “polymyxin B.” for “ampicillin.”
as §3, with “chloramphenicol,” for “ampicillin,”, “phenicol” for “beta-lactam”, “oldest” for “most widely used”, “chloramphenicol” for “ampicillin”, “Chloram-P,” for “Ampi-P,”, “chloramphenicol.” for “ampicillin.”
as §5

[3] = system: Escherichia coli strains susceptible to 5 μg/ml amoxicillin; type: cell-based
Protocol: Escherichia coli strains susceptible to 5 μg/ml amoxicillin were cultured in the presence of a sub-inhibitory concentration of 3 μg/ml, then seeded into nutrient medium (Muller Hinton) containing increasing concentrations of amoxicillin (4 then 5 then 6 μg/ml . . . ). The same procedure was carried out with amoxicillin potentiated by carvacrol at a concentration two times lower than the MIC of carvacrol alone, namely 500 μg/ml. This experiment was based on the principle that at each subcloning, a mutant resistant to the new amoxicillin concentration would multiply, giving rise to a strain more resistant than the strain from which the subcloning arose.

[4] = system: amoxicillin-resistant Klebsiella pneumoniae; assay: In vivo test in mice experimentally infected by intraperitoneal injection; conditions: organs of mice which died during the experiment; amoxicillin alone 10 mg/kg/day by gavage
Protocol: Groups of 10 mice were experimentally infected by intraperitoneal injection of 1,000,000 cells (colony-forming units) of amoxicillin-resistant Klebsiella pneumoniae.
The first group was composed of control mice which were infected and untreated.
The second group was composed of infected mice treated by gavage, 24 h post-infection, with amoxicillin alone at a dose of 10 mg/kg of body weight/day.
The third group was composed of infected mice treated by gavage, 24 h post-infection, with carveol alone at a dose of 120 mg/kg of body weight/day.
The fourth group was composed of infected mice treated by gavage, 24 h post-infection, with the pharmaceutical composition of the invention (AMOX-P) at a dose of 2 mg/kg of body weight/day of amoxicillin and 120 mg/kg of body weight/day of carveol.
The survival rate was measured over time. […] All the other mice died between the second and third day post-infection.

[5] = Staphylococcus epidermidis, read-out: MIC
[6] = Bacillus subtilis, read-out: MIC
[7] = Salmonella enterica, TYPHIMURIUM, read-out: MIC
[8] = Escherichia coli, read-out: MIC
[9] = starting from 3 μg/ml, potentiated: carvacrol 500 μg/ml

CO[C@H]1/C=C/O[C@@]2(C)Oc3c(C)c(O)c4c(O)c(c(/C=N/N5CCN(C)CC5)c(O)c4c3C2=O)NC(=O)/C(C)=C\C=C\[C@H](C)[C@H](O)[C@@H](C)[C@@H](O)[C@@H](C)[C@H](OC(C)=O)[C@@H]1C [Rifampicin, rifampicin]
times lower antibiotic concentration producing bactericidal activity versus antibiotic alone [1]: at least 25 times
MIC (Mycobacterium fortuitum): > 75 µg/mL
MIC (Mycobacterium fleii): > 75 µg/mL

CC(=O)/C=C/C1=C(C)CCCC1(C)C [Beta-ionone, beta-ionone]
MBC [2]: 2000 µg/mL
MBC (Bacillus subtilis): 2000 µg/mL
MBC (Salmonella typhimurium): 2000 µg/mL
MBC (Escherichia coli): 2000 µg/mL

O=C(N[C@H](CO)[C@H](O)c1ccc([N+](=O)[O-])cc1)C(Cl)Cl [Chloramphenicol, chloramphenicol]
MIC [2, 5]: > 50 µg/mL
MIC (Bacillus subtilis; [6]): > 50 µg/mL
MIC (Salmonella typhimurium; [7]): > 50 µg/mL
MIC (Escherichia coli; [8]): > 50 µg/mL

polymyxin B
MIC [2]: >50 µg/mL
MIC (Bacillus subtilis): >50 µg/mL
MIC (Salmonella typhimurium): 25 µg/mL
MIC (Escherichia coli): >50 µg/mL

CC1(C)S[C@@H]2[C@H](NC(=O)[C@H](N)c3ccccc3)C(=O)N2[C@H]1C(=O)O [Ampicillin, ampicillin]
MIC [2, 5]: > 50 µg/mL
MIC (Bacillus subtilis; [6]): > 50 µg/mL
MIC (Salmonella typhimurium; [7]): > 50 µg/mL
MIC (Escherichia coli; [8]): > 50 µg/mL

CC1(C)S[C@@H]2[C@H](NC(=O)[C@H](N)c3ccc(O)cc3)C(=O)N2[C@H]1C(=O)O [Amoxicillin, amoxicillin]
Final conc. (to which resistant mutants were selected) ([3]; 50 μg/ml was the highest concentration in the experiment): 50 µg/mL
No. of subclonings (to reach final conc.) ([3]; starting from 3 μg/ml): 9
Median conc. (to which resistant mutants were selected) [3, 9]: 17 µg/mL
No. of subclonings (to reach median conc.) [3, 9]: 4
Klebsiella pneumoniae loads in kidney, lung and bone marrow [4]: high loads

CC(=O)/C=C/C1C(C)=CCCC1(C)C (stereo not drawn) [Alpha-ionone, alpha-ionone]
MBC [2]: 2000 µg/mL
MBC (Bacillus subtilis): 2000 µg/mL
MBC (Salmonella typhimurium): 2000 µg/mL
MBC (Escherichia coli): 2000 µg/mL
